According to patent US20110319362A1, “STAT3 LIGANDS AND THERAPEUTIC USES THEREOF” (priority 2008, published 2011):
Like-named read-outs stand apart in the source and are kept apart here. Where a SMILES comes first, the peptide text is derived from it. [ ]: non-standard residue; d: D form. The star is where a group is joined. 5FAM = O=C1OC2(c3ccc(O)cc3Oc3cc(O)ccc32)c2ccc(C(=O)*)cc21; pY = N[C@@H](Cc1ccc(OP(=O)(O)O)cc1)C(=O)O; βAla = NCCC(=O)O

Experiments:
STAT3 protein = biological target: T1, STAT3 protein (Homo sapiens, UniProt P40763); assay: In vitro competitive STAT3 binding assay (fluorescence polarization)
T1 construct: human STAT3 protein (residues 122-722) fused to His-tag; His-tag
T1 sequence (P40763 122-722): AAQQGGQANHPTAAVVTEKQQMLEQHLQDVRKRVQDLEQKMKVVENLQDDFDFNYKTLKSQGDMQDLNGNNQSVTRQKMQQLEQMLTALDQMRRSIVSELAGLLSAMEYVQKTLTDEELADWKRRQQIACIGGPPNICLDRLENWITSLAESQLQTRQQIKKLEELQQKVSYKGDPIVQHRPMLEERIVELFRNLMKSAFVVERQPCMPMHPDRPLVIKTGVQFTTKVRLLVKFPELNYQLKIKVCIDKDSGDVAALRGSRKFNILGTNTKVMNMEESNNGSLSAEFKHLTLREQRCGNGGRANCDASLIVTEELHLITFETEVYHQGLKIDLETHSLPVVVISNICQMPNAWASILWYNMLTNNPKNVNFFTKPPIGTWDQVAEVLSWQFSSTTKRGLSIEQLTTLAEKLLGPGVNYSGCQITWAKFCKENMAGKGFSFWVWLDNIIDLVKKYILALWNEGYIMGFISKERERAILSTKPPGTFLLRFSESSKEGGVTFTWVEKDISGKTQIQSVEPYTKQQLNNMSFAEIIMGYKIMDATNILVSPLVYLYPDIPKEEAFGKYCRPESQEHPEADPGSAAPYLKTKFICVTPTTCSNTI
Text: To quantitatively determine the binding affinities of STAT3 inhibitors to STAT3 protein, a sensitive and quantitative in vitro binding assay was developed based upon fluorescence polarization (FP) method. For this FP assay, 5-carboxyfluorescein (5-Fam) was coupled to a phosphopeptide (phospho-Tyr-Leu-Pro-Gln-Thr-Val-amide) with two beta-alanine and one glycine residues as the spacer between 5-Fam and the phosphopeptide to obtain 5-Fam-beta-Ala-beta-Ala-Gly-phospho-Tyr-Leu-Pro-Gln-Thr-Val-amide as the fluorescently tagged tracer, which was named as STT2 peptide. […] The recombinant human STAT3 protein (residues 122-722) fused to His-tag was stable and soluble.
Competitive binding experiments were carried out using 150 nM of STAT3 protein and 5 nM of STT2 peptide with different concentrations of a tested STAT3 inhibitor. For each experiment, two controls were included. One control contained STAT3 protein and STT2 peptide, and the second control contained STT2 peptide only. The polarization values were measured after 2-3 hours of incubation using an ULTRA READER (Tecan U.S. Inc., Research Triangle Park, N.C.). IC50 values, the inhibitor concentration at which 50% of the fluorescently tagged STT2 peptide is displaced by STAT3 inhibitors, was determined from a plot using nonlinear least-squares analysis using GRAPHPAD PRISM software (GraphPad Software, Inc., San Diego, Calif.). […]

[1] = test system: MDA-MB-468 cancer cell line; assay: Cell growth assay (WST-8); format: cell-based; conditions: Homo sapiens, MDA-MB-468, 96 h, WST-8, 4 days
Method: (§1) The effect of STAT3 compounds on cell growth was evaluated by a WST-8 [2-(2-methoxy-4-nitrophenyl)-3-(4-nitrophenyl)-5-(2,4-disulfophenyl)-2H-tetrazolium, monosodium salt assay (Dojindo Molecular Technologies, Inc). Cells (3000-4000 cells in each well) were cultured in 96-well tissue culture plates in medium (200 μL) containing various concentrations of STAT3 compounds for 4 days. At the end of incubation, WST-8 dye (20 μL) was added to each well and incubated for an additional 1-3 h, and then the absorbance was measured in a microplate reader (Molecular Devices) at 450 nm. Cell growth inhibition was evaluated as the ratio of the absorbance of the sample to that of the control.

[2] = test system: MDA-MB-231 cancer cell line; assay: Cell growth assay (WST-8); format: cell-based; conditions: Homo sapiens, MDA-MB-231, 96 h, WST-8, 4 days
Method: as §1

[3] = read-out: Inhibition of cell growth IC50, MDA-MB-468 cancer cell line
[4] = read-out: Inhibition of cell growth IC50, MDA-MB-231 cancer cell line
[5] = FP competitive binding, fluorescently tagged STT2 peptide tracer, read-out: Binding affinities to STAT3 IC50
[6] = Table 2 prints no column heads, columns and unit as in Table 1, read-out: Inhibition of cell growth IC50, MDA-MB-468 cancer cell line (pro-drugs, Table 2)
[7] = Table 2 prints no column heads, columns and unit as in Table 1, read-out: Inhibition of cell growth IC50, MDA-MB-231 cancer cell line (pro-drugs, Table 2)

## O=C(CC[C@H](NC(=O)[C@@H]1CCC2CCCC[C@H](NC(=O)[C@H](Cc3ccc(OP(=O)(O)O)cc3)NC(=O)OCc3ccccc3)C(=O)N21)C(=O)NCc1ccccc1)NC(c1ccccc1)(c1ccccc1)c1ccccc1 (some centres unmarked)
STAT3 protein
  IC50: < 20 µM
[1]; [3]
  IC50: < 50 µM
[2]; [4]
  IC50: < 50 µM

## NC(=O)CC[C@H](NC(=O)[C@@H]1CCC2CCCC[C@H](NC(=O)[C@H](Cc3ccc(OP(=O)(O)O)cc3)NC(=O)CCOCCOCCOCCOCCNC(=O)CCCCC3SCC4NC(=O)NC43)C(=O)N21)C(=O)NCc1ccccc1 (some centres unmarked)
STAT3 protein
  IC50: < 1 µM

## NC(=O)CC[C@H](NC(=O)[C@@H]1CCC2CCNC[C@H](NC(=O)[C@@H](N)Cc3ccc(OP(=O)(O)O)cc3)C(=O)N21)C(=O)NCc1ccccc1 (some centres unmarked)
STAT3 protein
  IC50: < 100 µM
[1]; [3]
  IC50: > 100 µM
[2]; [4]
  IC50: > 100 µM

## CCCCCCCCN(CCCCCCCC)[C@@H](Cc1ccc(OP(=O)(O)O)cc1)C(=O)N[C@H]1CCCCC2CC[C@@H](C(=O)N[C@@H](CCC(N)=O)C(=O)NCc3ccccc3)N2C1=O (some centres unmarked)
STAT3 protein; [5]
  IC50: < 100 µM
[2]; [4]
  IC50: > 100 µM

## CCCCCCCCCCCCCCCCN1CCN(CCC(=O)N[C@@H](Cc2ccc(OP(=O)(O)O)cc2)C(=O)N[C@H]2CCCCC3CC[C@@H](C(=O)NCCc4nnn[nH]4)N3C2=O)CC1 (some centres unmarked)
[1]; [3]
  IC50: < 50 µM
[2]; [4]
  IC50: < 50 µM

## CC(C)(C)C(=O)OCOP(=O)(Cc1ccc(C[C@H](NC(=O)OCC2c3ccccc3-c3ccccc32)C(=O)N[C@H]2CCCCC3CC[C@@H](C(=O)N[C@@H](CCC(N)=O)C(=O)NCc4ccccc4)N3C2=O)cc1)OCOC(=O)C(C)(C)C (some centres unmarked)
[1]; [6]
  IC50: < 10 µM
[2]; [7]
  IC50: < 10 µM

## CC(C)(C)C(=O)OCOP(=O)(COc1ccc(C[C@H](NC(=O)OCc2ccccc2)C(=O)N[C@H]2CCCCC3CC[C@@H](C(=O)N[C@@H](CCC(N)=O)C(=O)NCc4ccccc4)N3C2=O)cc1)OCOC(=O)C(C)(C)C (some centres unmarked)
[1]; [6]
  IC50: > 50 µM
[2]; [7]
  IC50: > 50 µM

## CC(C)(C)C(=O)OCOP(=O)(O)COc1ccc(C[C@H](NC(=O)OCc2ccccc2)C(=O)N[C@H]2CCCCC3CC[C@@H](C(=O)N[C@@H](CCC(N)=O)C(=O)NCc4ccccc4)N3C2=O)cc1 (some centres unmarked)
[1]; [6]
  IC50: > 50 µM
[2]; [7]
  IC50: > 50 µM

## CC(C)(C)C(=O)OCOP(=O)(OCOC(=O)C(C)(C)C)C(F)(F)c1ccc(/C=C/C(=O)N[C@H]2CCCCC3CC[C@@H](C(=O)NCCc4cn[nH]c4)N3C2=O)cc1 (some centres unmarked)
[1]; [6]
  IC50: < 30 µM

## CC(C)(C)C(=O)OCOP(=O)(OCOC(=O)C(C)(C)C)C(F)(F)c1ccc(/C=C/C(=O)N[C@H]2CCCCC3CC[C@@H](C(=O)N[C@@H](CCC(N)=O)C(=O)NCc4ccccc4)N3C2=O)cc1 (some centres unmarked)
[1]; [6]
  IC50: > 100 µM

## CCCCCCCCCCCCCCCCOP(=O)(OCCCCCCCCCCCCCCCC)C(F)(F)c1ccc2cc(C(=O)N[C@H]3CCCC[C@H]4CC[C@@H](C(=O)NCCc5cn[nH]c5)N4C3=O)[nH]c2c1
[1]; [6]
  IC50: > 100 µM

## CCCCCCCCCCCCCCCCOP(=O)(OCCCCCCCCCCCCCCCC)C(F)(F)c1ccc2cc(C(=O)N[C@H]3CCCC[C@H]4CC[C@@H](C(=O)N(CC)CC)N4C3=O)[nH]c2c1
[1]; [6]
  IC50: > 100 µM

## CCCCCCCCCCCCCCCCOP(=O)(OCCCCCCCCCCCCCCCC)C(F)(F)c1ccc2cc(C(=O)N[C@H]3CCCC[C@H]4CC[C@@H](C(=O)NC(CCC(N)=O)C(=O)NCc5ccccc5)N4C3=O)[nH]c2c1 (some centres unmarked)
[1]; [6]
  IC50: < 30 µM

## CCCCCCCCCCCCCCCCOP(=O)(O)C(F)(F)c1ccc2cc(C(=O)N[C@H]3CCCC[C@H]4CC[C@@H](C(=O)NCCc5cn[nH]c5)N4C3=O)[nH]c2c1
[1]; [6]
  IC50: > 100 µM

## CCCCCCCCCCCCCCCCOP(=O)(O)C(F)(F)c1ccc2cc(C(=O)N[C@H]3CCCC[C@H]4CC[C@@H](C(=O)NC(CCC(N)=O)C(=O)NCc5ccccc5)N4C3=O)[nH]c2c1 (some centres unmarked)
[1]; [6]
  IC50: > 50 µM

## CC(=O)N[C@@H](Cc1ccc(OCP(=O)(O)O)cc1)C(=O)N[C@H]1CCCCC2CC[C@@H](C(=O)N[C@@H](CCC(N)=O)C(=O)NCc3ccccc3)N2C1=O (stereo in doubt) [Example 31]
STAT3 protein
  IC50: < 10 µM
[2]; [4]
  IC50: > 100 µM

## CCOP(=O)(O)CCCCCC(=O)N[C@H]1CCCC[C@H]2CC[C@@H](C(=O)N[C@@H](CCC(N)=O)C(=O)NCc3ccccc3)N2C1=O [Example 23]
STAT3 protein; [5]
  IC50: > 100 µM
[2]; [4]
  IC50: > 100 µM

## CC(=O)N[C@@H](Cc1ccc(CP(=O)(O)O)cc1)C(=O)N[C@H]1CCCC[C@H]2CC[C@@H](C(=O)N[C@@H](Cc3c[nH]cn3)C(=O)NCc3ccccc3)N2C1=O [Example 27]
STAT3 protein
  IC50: > 10 µM
[2]; [4]
  IC50: > 100 µM

## CN(C)[C@@H](Cc1ccc(CP(=O)(O)O)cc1)C(=O)N[C@H]1CCCC[C@H]2CC[C@@H](C(=O)N[C@@H](Cc3c[nH]cn3)C(=O)NCc3ccccc3)N2C1=O [Example 28]
STAT3 protein; [5]
  IC50: > 10 µM
[1]; [3]
  IC50: > 100 µM

## NC(=O)CC[C@H](NC(=O)[C@@H]1CCC2CCCC[C@H](NC(=O)c3cc4cc(C(F)(F)P(=O)(O)O)ccc4[nH]3)C(=O)N21)C(=O)NCc1ccccc1 (some centres unmarked) [Example 59]
STAT3 protein
  IC50: < 1 µM
[1]; [3]
  IC50: > 100 µM

## Cn1c(C(=O)N[C@H]2CCCCC3CC[C@@H](C(=O)NC(CCC(N)=O)C(=O)NCc4ccccc4)N3C2=O)cc2cc(C(F)(F)P(=O)(O)O)ccc21 (some centres unmarked) [Example 61]
STAT3 protein; [5]
  IC50: < 5 µM
[1]; [3]
  IC50: > 100 µM

## CCOP(=O)(OCC)C(F)(F)c1ccc2c(c1)cc(C(=O)N[C@H]1CCCCC3CC[C@@H](C(=O)NC(CCC(N)=O)C(=O)NCc4ccccc4)N3C1=O)n2C (some centres unmarked) [Example 62]
[1]; [6]
  IC50: > 100 µM

## CC(C)(C)C(=O)OCOP(=O)(OCOC(=O)C(C)(C)C)C(F)(F)c1ccc2[nH]c(C(=O)N[C@H]3CCCCC4CC[C@@H](C(=O)NCCc5cn[nH]c5)N4C3=O)cc2c1 (some centres unmarked) [Example 63]
[1]; [6]
  IC50: < 50 µM

## CC(C)(C)C(=O)OCOP(=O)(OCOC(=O)C(C)(C)C)C(F)(F)c1ccc2[nH]c(C(=O)N[C@H]3CCCCC4CC[C@@H](C(=O)NC(CCC(N)=O)C(=O)NCc5ccccc5)N4C3=O)cc2c1 (some centres unmarked) [Example 64]
[1]; [6]
  IC50: > 100 µM

## NC(=O)CCC(NC(=O)[C@@H]1CCC2CCCC[C@H](NC(=O)c3cc4cc(C(F)(F)P(=O)(O)O)ccc4o3)C(=O)N21)C(=O)NCc1ccccc1 (some centres unmarked) [Example 65]
STAT3 protein; [5]
  IC50: > 10 µM
[1]; [3]
  IC50: > 100 µM

## CCCCCCCCCCCCCCCCNC(=O)C(CCC(N)=O)NC(=O)[C@@H]1CCC2CCCC[C@H](NC(=O)c3cc4cc(C(F)(F)P(=O)(O)O)ccc4[nH]3)C(=O)N21 (some centres unmarked) [Example 66]
STAT3 protein
  IC50: < 1 µM
[1]; [3]
  IC50: > 100 µM

## CCCCCCCCCCCCCCCCNC(=O)C(CCC(N)=O)NC(=O)[C@@H]1CCC2CCCC[C@H](NC(=O)c3cc4cc(C(F)(F)P(=O)(OCOC(=O)C(C)(C)C)OCOC(=O)C(C)(C)C)ccc4[nH]3)C(=O)N21 (some centres unmarked) [Example 67]
[1]; [6]
  IC50: > 100 µM

## CC(C)OC(=O)OCOP(=O)(OCOC(=O)OC(C)C)C(F)(F)c1ccc2[nH]c(C(=O)N[C@H]3CCCCC4CC[C@@H](C(=O)NC(CCC(N)=O)C(=O)NCc5ccccc5)N4C3=O)cc2c1 (some centres unmarked) [Example 68]
[1]; [6]
  IC50: > 100 µM

## CC(C)OC(=O)OCOP(=O)(OCOC(=O)OC(C)C)C(F)(F)c1ccc2[nH]c(C(=O)N[C@H]3CCCCC4CC[C@@H](C(=O)NCCc5cn[nH]c5)N4C3=O)cc2c1 (some centres unmarked) [Example 69]
[1]; [6]
  IC50: > 100 µM

## CC(C)C[C@H](NC(=O)[C@H](Cc1ccc(OP(=O)(O)O)cc1)NC(=O)CNC(=O)CCNC(=O)CCNC(=O)c1ccc2c(c1)C(=O)OC21c2ccc(O)cc2Oc2cc(O)ccc21)C(=O)N1CCC[C@H]1C(=O)N[C@@H](CCC(N)=O)C(=O)N[C@H](C(=O)N[C@H](C(N)=O)C(C)C)[C@@H](C)O [STT2 peptide, 5-Fam-beta-Ala-beta-Ala-Gly-phospho-Tyr-Leu-Pro-Gln-Thr-Val-amide, reference compound] ({5FAM-βAla-βAla}-G[pY]LPQTV-NH2)
STAT3 protein
  Kd: 0.047 µM
